Among the data in patent US8552004B2, “Chemical compounds” (AstraZeneca AB, priority 2010, dated 2013) are IC50 values, retold here.

Chain of ATR (Q13535 whole entry): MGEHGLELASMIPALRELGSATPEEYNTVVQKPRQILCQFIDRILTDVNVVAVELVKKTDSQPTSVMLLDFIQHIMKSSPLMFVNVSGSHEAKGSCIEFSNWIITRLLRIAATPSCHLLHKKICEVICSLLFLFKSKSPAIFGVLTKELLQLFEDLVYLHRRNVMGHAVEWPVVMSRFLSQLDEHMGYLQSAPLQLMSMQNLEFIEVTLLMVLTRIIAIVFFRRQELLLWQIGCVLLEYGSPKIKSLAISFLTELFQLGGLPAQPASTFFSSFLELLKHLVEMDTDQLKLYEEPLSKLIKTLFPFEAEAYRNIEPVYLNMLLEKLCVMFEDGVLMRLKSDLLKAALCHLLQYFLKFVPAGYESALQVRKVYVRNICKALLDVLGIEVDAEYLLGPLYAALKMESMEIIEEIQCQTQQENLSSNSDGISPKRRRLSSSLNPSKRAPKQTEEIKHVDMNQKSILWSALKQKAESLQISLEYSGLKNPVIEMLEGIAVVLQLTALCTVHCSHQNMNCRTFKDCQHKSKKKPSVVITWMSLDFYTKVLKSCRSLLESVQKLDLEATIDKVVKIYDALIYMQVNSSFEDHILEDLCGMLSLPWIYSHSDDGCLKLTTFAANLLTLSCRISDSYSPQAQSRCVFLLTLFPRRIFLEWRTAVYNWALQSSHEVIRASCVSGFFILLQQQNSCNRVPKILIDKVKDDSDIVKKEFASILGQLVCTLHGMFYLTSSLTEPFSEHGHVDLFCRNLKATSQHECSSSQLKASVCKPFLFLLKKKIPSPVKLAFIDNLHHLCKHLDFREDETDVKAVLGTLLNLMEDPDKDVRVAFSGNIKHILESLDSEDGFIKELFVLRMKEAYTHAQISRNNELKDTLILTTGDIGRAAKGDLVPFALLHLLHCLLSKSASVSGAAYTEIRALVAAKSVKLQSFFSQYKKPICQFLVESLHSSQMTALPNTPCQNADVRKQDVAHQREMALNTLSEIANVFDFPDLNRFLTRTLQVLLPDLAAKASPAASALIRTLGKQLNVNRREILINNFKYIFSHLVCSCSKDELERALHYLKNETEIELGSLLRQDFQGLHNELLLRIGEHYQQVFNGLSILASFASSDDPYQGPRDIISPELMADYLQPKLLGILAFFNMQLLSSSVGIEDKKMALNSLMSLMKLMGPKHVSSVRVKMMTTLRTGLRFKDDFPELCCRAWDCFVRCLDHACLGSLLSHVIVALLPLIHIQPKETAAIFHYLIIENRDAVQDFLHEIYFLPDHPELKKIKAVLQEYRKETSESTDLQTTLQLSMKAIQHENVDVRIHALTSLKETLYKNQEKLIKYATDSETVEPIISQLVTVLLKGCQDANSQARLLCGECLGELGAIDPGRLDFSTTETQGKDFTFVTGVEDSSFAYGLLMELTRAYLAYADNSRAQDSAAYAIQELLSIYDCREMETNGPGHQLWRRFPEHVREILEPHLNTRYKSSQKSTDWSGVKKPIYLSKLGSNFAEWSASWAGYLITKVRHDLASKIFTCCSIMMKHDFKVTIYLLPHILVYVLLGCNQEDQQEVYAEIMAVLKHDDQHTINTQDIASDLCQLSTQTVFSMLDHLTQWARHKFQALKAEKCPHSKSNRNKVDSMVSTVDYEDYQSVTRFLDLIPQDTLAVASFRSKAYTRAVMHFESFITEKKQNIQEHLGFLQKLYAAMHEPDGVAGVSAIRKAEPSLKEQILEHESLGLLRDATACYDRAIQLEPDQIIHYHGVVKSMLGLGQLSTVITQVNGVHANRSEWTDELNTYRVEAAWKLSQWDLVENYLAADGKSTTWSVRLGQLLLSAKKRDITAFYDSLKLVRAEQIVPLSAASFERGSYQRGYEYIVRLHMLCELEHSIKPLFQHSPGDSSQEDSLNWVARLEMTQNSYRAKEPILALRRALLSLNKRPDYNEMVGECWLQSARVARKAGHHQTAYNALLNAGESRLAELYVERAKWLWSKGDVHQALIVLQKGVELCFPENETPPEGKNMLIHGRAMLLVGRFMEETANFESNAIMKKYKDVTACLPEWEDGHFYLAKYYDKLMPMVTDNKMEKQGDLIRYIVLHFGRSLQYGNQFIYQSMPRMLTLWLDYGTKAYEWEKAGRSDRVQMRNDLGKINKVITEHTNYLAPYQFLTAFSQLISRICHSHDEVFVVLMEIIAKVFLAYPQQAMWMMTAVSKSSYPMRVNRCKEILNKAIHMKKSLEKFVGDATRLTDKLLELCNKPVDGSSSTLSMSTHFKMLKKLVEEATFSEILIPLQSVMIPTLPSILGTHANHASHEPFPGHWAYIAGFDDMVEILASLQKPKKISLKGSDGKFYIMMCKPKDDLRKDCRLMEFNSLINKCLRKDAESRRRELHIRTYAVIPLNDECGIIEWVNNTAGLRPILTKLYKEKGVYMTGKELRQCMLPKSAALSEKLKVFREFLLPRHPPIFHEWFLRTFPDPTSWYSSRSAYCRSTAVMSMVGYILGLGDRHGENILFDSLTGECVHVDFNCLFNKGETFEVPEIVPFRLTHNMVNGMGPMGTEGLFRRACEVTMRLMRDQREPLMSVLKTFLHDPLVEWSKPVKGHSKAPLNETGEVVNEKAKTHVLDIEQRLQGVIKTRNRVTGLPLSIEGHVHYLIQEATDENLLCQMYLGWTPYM
Chain of ATR (Q8WXE1 whole entry partner): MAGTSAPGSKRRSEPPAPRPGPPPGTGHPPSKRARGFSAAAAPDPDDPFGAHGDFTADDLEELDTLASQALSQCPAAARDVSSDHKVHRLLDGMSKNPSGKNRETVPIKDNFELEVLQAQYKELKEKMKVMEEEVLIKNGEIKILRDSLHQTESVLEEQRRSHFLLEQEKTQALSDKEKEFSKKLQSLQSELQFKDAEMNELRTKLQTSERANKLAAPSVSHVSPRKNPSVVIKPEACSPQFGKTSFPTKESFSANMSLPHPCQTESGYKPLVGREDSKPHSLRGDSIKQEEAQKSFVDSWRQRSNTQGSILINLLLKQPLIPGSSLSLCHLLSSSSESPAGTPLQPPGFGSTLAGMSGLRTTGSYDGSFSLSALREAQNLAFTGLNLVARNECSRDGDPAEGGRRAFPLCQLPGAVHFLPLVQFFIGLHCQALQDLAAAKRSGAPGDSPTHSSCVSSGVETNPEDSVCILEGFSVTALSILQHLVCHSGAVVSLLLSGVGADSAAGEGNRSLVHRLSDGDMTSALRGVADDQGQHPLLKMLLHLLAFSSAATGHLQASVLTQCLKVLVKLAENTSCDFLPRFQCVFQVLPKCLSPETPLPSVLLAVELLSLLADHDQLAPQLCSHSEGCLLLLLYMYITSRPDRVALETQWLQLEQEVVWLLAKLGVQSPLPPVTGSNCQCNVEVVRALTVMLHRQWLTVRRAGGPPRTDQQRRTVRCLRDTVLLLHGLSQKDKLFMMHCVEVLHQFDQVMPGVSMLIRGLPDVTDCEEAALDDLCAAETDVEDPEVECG

This assay concerns the target ATR (Homo sapiens (Human), UniProt Q13535). The assay can be described thus: Cellular Assay - ATR, phosphorylation of Chk1 (Ser 345) in HT29 cells after 4NQO (Test (b)). It is filed as cell-based. The following applies: cell assay Test (b); pChk1 Ser345 in HT29 cells, 3 μM 4NQO; arithmetic mean. The text has this:
ATM and ATR have distinct and overlapping responses to DNA damage. They must participate together and responses must be co-ordinated. Both pathways may be activated by ionising radiation, however only ATR is activated by UV. Since UV treatment is not practical for use in a high throughput cell assay, the UV mimetic 4NQ0 (Sigma) was chosen to activate the ATR DNA damage response pathway.
Chk1, a downstream protein kinase of ATR, plays a key role in DNA damage checkpoint control. Activation of Chk1 involves phosphorylation of Ser317 and Ser345 (regarded as the preferential target for phosphorylation/activation by ATR). […] Compounds dose ranges were created by diluting in 100% DMSO and then further into assay media (EMEM, 10% FCS, 1% glutamine) using a Labcyte Echo Acoustic dispensing instrument. Cells were plated in 384 well Costar plates at 9×10^4 cells per ml in 40 μL EMEM, 10% FCS, 1% glutamine and grown for 24 hrs. Following addition of compound the cells were incubated for 60 minutes. A final concentration of 3 μM 4NQ0 (prepared in 100% DMSO) was then added using the Labcyte Echo and the cells incubated for a further 60mins. The cells are then fixed by adding 40 μL 3.7% v/v formaldehyde solution for 20 minutes. After removal of fix, cells were washed with PBS and permeabilised in 40 μL of PBS containing 0.1% Triton™ X-100. Cells are then washed and 15 μl primary antibody solution (pChk1 Ser345) added and the plates incubated at 4° C. overnight. […] The plates are washed and left in 40 μl PBS. Plates were then read on an ArrayS can Vti instrument to determine staining intensities, and dose responses were obtained and used to determine the IC50 values for the compounds.
The term IC50 denotes the point on the concentration scale where inhibition reaches its midpoint. A low value points to inhibition by little substance. `C[C@@H]1COCCN1c1cc(C2([S@](C)(=N)=O)CC2)nc(-c2cccc3[nH]ccc23)n1` [Example 2.05, 4-{4-[(3R)-3-Methylmorpholin-4-yl]-6-[1-((R)—S-methylsulfonimidoyl)cyclopropyl]pyrimidin-2-yl}-1H-indole] yielded an IC50 of 75.8 nM. For `C[C@@H]1COCCN1c1cc(C2([S@@](C)(=N)=O)CC2)nc(-c2cccc3[nH]ccc23)n1` [Example 2.06, 4-{4-[(3R)-3-methylmorpholin-4-yl]-6-[1-((S)—S-methylsulfonimidoyl)cyclopropyl]pyrimidin-2-yl}-1H-indole] the value was 12.9 nM; for `C[C@@H]1COCCN1c1cc(C2([S@](C)(=N)=O)CC2)nc(-n2c(N)nc3ccccc32)n1` [Example 2.07, 1-{4-[(3R)-3-Methylmorpholin-4-yl]-6-[1-((R)—S-methylsulfonimidoyl)cyclopropyl]pyrimidin-2-yl}-1H-benzimidazol-2-amine], 2.58 nM; for `C[C@@H]1COCCN1c1cc(C2([S@@](C)(=N)=O)CC2)nc(-n2c(N)nc3ccccc32)n1` [Example 2.08, 1-{4-[(3R)-3-methylmorpholin-4-yl]-6-[1-((S)—S-methylsulfonimidoyl)cyclopropyl]pyrimidin-2-yl}-1H-benzimidazol-2-amine], 2.76 nM. The compound `CNc1nc2c(F)cccc2n1-c1nc(N2CCOC[C@H]2C)cc(C2([S@](C)(=N)=O)CC2)n1` [Example 2.09, 4-Fluoro-N-methyl-1-{4-[(3R)-3-methylmorpholin-4-yl]-6-[1-((R)—S-methylsulfonimidoyl)cyclopropyl]pyrimidin-2-yl}-1H-benzimidazol-2-amine] had an IC50 of 159 nM.

`CNc1nc2c(F)cccc2n1-c1nc(N2CCOC[C@H]2C)cc(C2([S@@](C)(=N)=O)CC2)n1` [Example 2.10, 4-fluoro-N-methyl-{4-[(3R)-3-methylmorpholin-4-yl]-6-[1-((S)—S-methylsulfonimidoyl)cyclopropyl]pyrimidin-2-yl}-1H-benzimidazol-2-amine] gave an IC50 of 109 nM. With `CNc1nc2ccccc2n1-c1nc(N2CCOC[C@H]2C)cc(C(C)(C)[S@@](C)(=N)=O)n1` [Example 3.01, N-methyl-1-{4-[1-methyl-1-((S)—S-methylsulfonimidoyl)ethyl]-6-[(3R)-3-methylmorpholin-4-yl]pyrimidin-2-yl}-1H-benzimidazol-2-amine] the figure was 12.8 nM; with `CNc1nc2ccccc2n1-c1nc(N2CCOC[C@H]2C)cc(C(C)(C)[S@](C)(=N)=O)n1` [Example 3.02, N-methyl-1-{4-[1-methyl-1-((R)—S-methylsulfonimidoyl)ethyl]-6-[(3R)-3-methylmorpholin-4-yl]pyrimidin-2-yl}-1H-benzimidazol-2-amine], 8.43 nM.

Take `CNc1nc2ccccc2n1-c1nc(N2CCOC[C@H]2C)cc(C2([S@@](C)(=N)=O)CCOCC2)n1` [Example 4.01, N-Methyl-1-{4-[(3R)-3-methylmorpholin-4-yl]-6-[4-((S)—S-methylsulfonimidoyl)tetrahydro-2H-pyran-4-yl]pyrimidin-2-yl}-1H-benzimidazol-2-amine]: the IC50 was 53.6 nM. With `CNc1nc2ccccc2n1-c1nc(N2CCOC[C@H]2C)cc(C2([S@](C)(=N)=O)CCOCC2)n1` [Example 4.02, N-methyl-1-{4-[(3R)-3-methylmorpholin-4-yl]-6-[4-((R)—S-methylsulfonimidoyl)tetrahydro-2H-pyran-4-yl]pyrimidin-2-yl}-1H-benzimidazol-2-amine] the figure was 39.8 nM; with `C[C@@H]1COCCN1c1cc(C2([S@@](C)(=N)=O)CCOCC2)nc(-c2cccc3[nH]ccc23)n1` [Example 4.03], 51.1 nM. With `CNc1nc2c(F)cccc2n1-c1nc(N2CCOC[C@H]2C)cc(C(C)(C)[S@@](C)(=N)=O)n1` [Example 5.01, 4-Fluoro-N-methyl-1-{4-[1-methyl-1-((S)—S-methylsulfonimidoyl)ethyl]-6-[(3R)-3-methylmorpholin-4-yl]pyrimidin-2-yl}-1H-benzimidazol-2-amine] the figure was 62.5 nM. `CNc1nc2c(F)cccc2n1-c1nc(N2CCOC[C@H]2C)cc(C(C)(C)[S@](C)(=N)=O)n1` [Example 5.02, 4-fluoro-N-methyl-1-{4-[1-methyl-1-((R)—S-methylsulfonimidoyl)ethyl]-6-[(3R)-3-methylmorpholin-4-yl]pyrimidin-2-yl}-1H-benzimidazol-2-amine]: the concentration for half-maximal inhibition (IC50) was 70.8 nM. For `CNc1nc2ccc(F)cc2n1-c1nc(N2CCOC[C@H]2C)cc(C(C)(C)[S@](C)(=N)=O)n1` [Example 5.03, 6-Fluoro-N-methyl-1-{4-[1-methyl-1-((R)—S-methylsulfonimidoyl)ethyl]-6-[(3R)-3-methylmorpholin-4-yl]pyrimidin-2-yl}-1H-benzimidazol-2-amine] the value was 33.1 nM; for `CNc1nc2cc(F)ccc2n1-c1nc(N2CCOC[C@H]2C)cc(C(C)(C)[S@](C)(=N)=O)n1` [Example 5.04, 5-Fluoro-N-methyl-1-{4-[1-methyl-1-((R)—S-methylsulfonimidoyl)ethyl]-6-[(3R)-3-methylmorpholin-4-yl]pyrimidin-2-yl}-1H-benzimidazol-2-amine], 16.2 nM; for `CNc1nc2cc(F)ccc2n1-c1nc(N2CCOC[C@H]2C)cc(C(C)(C)[S@@](C)(=N)=O)n1` [Example 5.05, 5-Fluoro-N-methyl-1-{4-[1-methyl-1-((S)—S-methylsulfonimidoyl)ethyl]-6-[(3R)-3-methylmorpholin-4-yl]pyrimidin-2-yl}-1H-benzimidazol-2-amine], 18.3 nM. For `CNc1nc2ccc(F)cc2n1-c1nc(N2CCOC[C@H]2C)cc(C(C)(C)[S@@](C)(=N)=O)n1` [Example 5.06, 6-fluoro-N-methyl-1-{4-[1-methyl-1-((S)—S-methylsulfonimidoyl)ethyl]-6-[(3R)-3-methylmorpholin-4-yl]pyrimidin-2-yl}-1H-benzimidazol-2-amine] the value was 44.4 nM; for `CNc1nc2ccc(F)cc2n1-c1nc(N2CCOC[C@H]2C)cc(C2([S@](C)(=N)=O)CC2)n1` [Example 5.07, 6-Fluoro-N-methyl-1-{4-[(3R)-3-methylmorpholin-4-yl]-6-[1-((R)—S-methylsulfonimidoyl)cyclopropyl]pyrimidin-2-yl}-1H-benzimidazol-2-amine], 29 nM; for `CNc1nc2cc(F)ccc2n1-c1nc(N2CCOC[C@H]2C)cc(C2([S@](C)(=N)=O)CC2)n1` [Example 5.08, 5-fluoro-N-methyl-1-{4-[(3R)-3-methylmorpholin-4-yl]-6-[1-((R)—S-methylsulfonimidoyl)cyclopropyl]pyrimidin-2-yl}-1H-benzimidazol-2-amine], 10.1 nM.

On to `CNc1nc2cc(F)ccc2n1-c1nc(N2CCOC[C@H]2C)cc(C2([S@@](C)(=N)=O)CC2)n1` [Example 5.09, 5-fluoro-N-methyl-1-{4-[(3R)-3-methylmorpholin-4-yl]-6-[1-((S)—S-methylsulfonimidoyl)cyclopropyl]pyrimidin-2-yl}-1H-benzimidazol-2-amine], for which half-maximal inhibition (IC50) required 18 nM. With `CNc1nc2ccc(F)cc2n1-c1nc(N2CCOC[C@H]2C)cc(C2([S@@](C)(=N)=O)CC2)n1` [Example 5.10, 6-fluoro-N-methyl-1-{4-[(3R)-3-methylmorpholin-4-yl]-6-[1-((S)—S-methylsulfonimidoyl)cyclopropyl]pyrimidin-2-yl}-1H-benzimidazol-2-amine] the figure was 47 nM.
